Columns and labels:
synaptophysin = assay: Synaptophysin ELISA of protein isolated from rat brain; format: in vivo; conditions: 21 days after infusion; 1 way ANOVA p>0.05
Procedure: A) Immunofluorescent microscopy of fixed rat brain for neurons (NeuN) and glia (GFAP) 21 days after acute striatal infusion of 5 μl of either aCSF (control), F127-aCSF or F127-PAN. B) Synaptophysin ELISA of protein isolated from rat brain 21 days after infusion comparing F127-aCSF, F127-PAN and Panobinostat in DMSO against aCSF and untreated controls. […] (1 way ANOVA p>0.05).

SF8628 glioma cell line = assay: MTT assay, SF8628; format: cell-based, human
Procedure: (§1) Two independent glioma cell lines (A) SF7761 and (B) SF8628 were dosed with sodium valproate for 72 h, then subjected to an MTT assay to assess the effect of the drug on proliferation of glioma cells. Results are expressed as a % relative to untreated control. […] Two glioma cell lines (A) SF7761 and (B) SF8628 were dosed with sodium valproate for 72 h, followed by 6 h of carboplatin, after which, the drug was washed out and given fresh sodium valproate. Proliferation was assessed by MTT assay, and results expressed as a % relative to the untreated control cells.

SF7761 glioma cell line = assay: MTT assay, SF7761; format: cell-based, human
Procedure: as §1

glioma cell line = assay: MTT assay, 6 h sequential dosing on two consecutive days; format: cell-based, human
Procedure: One glioma cell line thus far has been tested with (A) 6 h dosing of VPA repeated one two consecutive days, followed by assessment of proliferation by MTT.

[1] = system: normal hippocampal neuronal and glial cells; assay: Toxicity in normal hippocampal cultures (B3 tubulin, GFAP staining); format: cell-based; conditions: 6 h dosing, assayed 72 h after
Procedure: Normal hippocampal cells were plated onto coverslips and grown for 72 h prior to dosing with sodium valproate to assess the toxicity of the drug against normal neuronal and glial cells. Cells were drugged with sodium valproate for 6 h, after which time the drug was washed off and fresh media added. Cells were further incubated for 72 h prior to fixing and staining with B3 tubulin (neuronal marker) and GFAP (glial cell marker) to determine to the toxicity of sodium valproate.

[2] = pre-conditioning with sodium valproate prior to carboplatin
[3] = sodium valproate 72 h, then 6 h carboplatin

SMILES	synaptophysin concentration against aCSF and untreated controls (synaptophysin)	cytotoxicity (proliferation, % relative to untreated control) (SF8628 glioma cell line; 72 h dosing)	combination index (CI) (SF8628 glioma cell line; [2])	effect of pre-dosing on cytotoxicity of carboplatin (SF8628 glioma cell line; [3])	cytotoxicity (proliferation, % relative to untreated control) (SF7761 glioma cell line; 72 h dosing)	combination index (CI) (SF7761 glioma cell line; [2])	effect of pre-dosing on cytotoxicity of carboplatin (SF7761 glioma cell line; [3])	cell viability, % relative to control (glioma cell line; 6 h dosing on two consecutive days)	cell viability, combined dosing with carboplatin (glioma cell line; carboplatin and sodium valproate 6 h on two consecutive days)	glial toxicity (GFAP) ([1]; 20 mM)	neuronal toxicity (B3 tubulin) [1]
Cc1[nH]c2ccccc2c1CCNCc1ccc(/C=C/C(=O)NO)cc1 [Panobinostat in DMSO, panobinostat]	No significant difference detected										
CCCC(CCC)C(=O)[O-].[Na+] [sodium valproate]		causes cytotoxicity to glioma cells in a dose dependent manner	below 1	potentiates the cytotoxicity of carboplatin	causes cytotoxicity to glioma cells in a dose dependent manner	below 1	potentiates the cytotoxicity of carboplatin	dose dependent decrease in cell viability	greater decrease in cell viability compared with carboplatin alone	Some toxicity	minimal neuronal toxicity
